# Assay results published in patent US20250171498A1, “ANTIBIOTIC COMPOUNDS, FORMULATIONS AND METHODS OF USE” (UNIVERSITEIT LEIDEN, priority 2022, published 2025).
# Where a SMILES comes first, the peptide text is derived from it. Bridges are numbered along the chain shown (N, C = ends). [ ]: non-standard residue; d: D form. The star is where a group is joined. S(2-cyclohexylethyl) = C1CCC(CCS*)CC1; dPen = CC(C)(S)[C@@H](N)C(=O)O; X3 = O=C(OCCSSCc1cccc(Cl)c1)*; S(3-Methylbutyl) = CC(C)CCS*; X4 = c1ccc(-c2ccc(S*)cc2)cc1; dDap = NC[C@@H](N)C(=O)O; Dab = NCC[C@H](N)C(=O)O; X2 = CC(C)CCSSCCOC(=O)*; Dap = NC[C@H](N)C(=O)O; Mpa = O=C(O)CCS
# How the values were obtained:
# Assay type in all cases: cell-based
# [1] = system: A. Baumanni (ATCC 19606); details: ATCC 19606
# Protocol: (§1) Compounds were prepared according to scheme 2, 3, 4, 6, 7, or 8 above, preparing different sets of compounds with different substitution patterns. All polymyxin analogues prepared were tested for their anti-bacterial activity on relevant Gram-negative strains (Table B). Polymyxin B and PMBN were taken along as references. In addition, the toxicity on renal Proximal Tubular Epithelial Cells (PTECs) was evaluated.
# (§2) 3rd Generation compounds were also subjected to testing for their anti-bacterial activity on relevant Gram-negative strains (Table C). Polymyxin B and PMBN were taken along as references. In addition, the toxicity on renal Proximal Tubular Epithelial Cells (PTECs) was evaluated, see Table C.
# [2] = system: E. Coli (ATCC 25922); details: ATCC 25922
# Protocol: as §1, §2
# [3] = system: K. Pneumoniae (ATCC 13883); details: ATCC 13883
# Protocol: as §1, §2
# [4] = system: P. Aeruginosa (ATCC 27853); details: ATCC 27853
# Protocol: as §1, §2
# [5] = system: renal Proximal Tubular Epithelial Cells (PTECs); assay: Toxicity on renal Proximal Tubular Epithelial Cells
# Protocol: as §1, §2
SMILES,MIC A. Baumanni (ATCC 19606) [1] [µg/mL],MIC E. Coli (ATCC 25922) [2] [µg/mL],MIC K. Pneumoniae (ATCC 13883) [3] [µg/mL],MIC P. Aeruginosa (ATCC 27853) [4] [µg/mL],PTEC Toxicity (relative to polymyxin B) [5]
CC(C)CCSSC(C)(C)[C@@H](N)C(=O)N[C@H](C(=O)N[C@@H](CCN)C(=O)N[C@H]1CCNC(=O)[C@H]([C@@H](C)O)NC(=O)[C@H](CCN)NC(=O)[C@H](CCN)NC(=O)[C@H](CC(C)C)NC(=O)[C@@H](CC(C)C)NC(=O)[C@H](CCN)NC1=O)[C@@H](C)O (H-[dPen](S(3-Methylbutyl))T[Dab][Dab][Dab][dL]L[Dab][Dab]T; lactam 4-C),4,2,2,2,
CC(C)CCSSCCOC(=O)N[C@H](C(=O)N[C@H](CN)C(=O)N[C@H]1CCNC(=O)[C@H]([C@@H](C)O)NC(=O)[C@H](CCN)NC(=O)[C@H](CCN)NC(=O)[C@H](CC(C)C)NC(=O)[C@@H](Cc2ccccc2)NC(=O)[C@H](CCN)NC1=O)[C@@H](C)O (X2-T[dDap][Dab][Dab][dF]L[Dab][Dab]T; lactam 3-C),,4,2,2,2.9
CC(C)CCSSC(C)(C)[C@@H](N)C(=O)N[C@H](C(=O)N[C@@H](CCN)C(=O)N[C@H]1CCNC(=O)[C@H]([C@@H](C)O)NC(=O)[C@H](CCN)NC(=O)[C@H](CCN)NC(=O)[C@H](CC(C)C)NC(=O)[C@@H](Cc2ccccc2)NC(=O)[C@H](CCN)NC1=O)[C@@H](C)O (H-[dPen](S(3-Methylbutyl))T[Dab][Dab][Dab][dF]L[Dab][Dab]T; lactam 4-C),4,2,2,2,
CC(C)C[C@@H]1NC(=O)[C@@H](Cc2ccccc2)NC(=O)[C@H](CCN)NC(=O)[C@@H](NC(=O)[C@H](CCN)NC(=O)[C@@H](NC(=O)[C@H](N)CSSCCC2CCCCC2)[C@@H](C)O)CCNC(=O)[C@H]([C@@H](C)O)NC(=O)[C@H](CCN)NC(=O)[C@H](CCN)NC1=O [drawing 128] (H-[dC](S(2-cyclohexylethyl))T[Dab][Dab][Dab][dF]L[Dab][Dab]T; lactam 4-C),0.5,1,,2,1.2
CC(C)C[C@@H]1NC(=O)[C@@H](Cc2ccccc2)NC(=O)[C@H](CCN)NC(=O)[C@@H](NC(=O)[C@H](CN)NC(=O)[C@@H](NC(=O)OCCSSCc2cccc(Cl)c2)[C@@H](C)O)CCNC(=O)[C@H]([C@@H](C)O)NC(=O)[C@H](CCN)NC(=O)[C@H](CCN)NC1=O (X3-T[Dap][Dab][Dab][dF]L[Dab][Dab]T; lactam 3-C),,8,4,4,0.8
CC(C)CCSSCCOC(=O)N[C@H](C(=O)N[C@@H](CCN)C(=O)N[C@H]1CCNC(=O)[C@H]([C@@H](C)O)NC(=O)[C@H](CCN)NC(=O)[C@H](CCN)NC(=O)[C@H](CC(C)C)NC(=O)[C@@H](Cc2ccccc2)NC(=O)[C@H](CCN)NC1=O)[C@@H](C)O (X2-T[Dab][Dab][Dab][dF]L[Dab][Dab]T; lactam 3-C),,8,8,2,0.9
CC(C)CCSSC(C)(C)[C@@H](N)C(=O)N[C@H](C(=O)N[C@@H](CN)C(=O)N[C@H]1CCNC(=O)[C@H]([C@@H](C)O)NC(=O)[C@H](CCN)NC(=O)[C@H](CCN)NC(=O)[C@H](CC(C)C)NC(=O)[C@@H](CC(C)C)NC(=O)[C@H](CCN)NC1=O)[C@@H](C)O (H-[dPen](S(3-Methylbutyl))T[Dap][Dab][Dab][dL]L[Dab][Dab]T; lactam 4-C),2,2,1,2,
CC(C)CCSSCCOC(=O)N[C@H](C(=O)N[C@@H](CN)C(=O)N[C@H]1CCNC(=O)[C@H]([C@@H](C)O)NC(=O)[C@H](CCN)NC(=O)[C@H](CCN)NC(=O)[C@H](CC(C)C)NC(=O)[C@@H](Cc2ccccc2)NC(=O)[C@H](CCN)NC1=O)[C@@H](C)O (X2-T[Dap][Dab][Dab][dF]L[Dab][Dab]T; lactam 3-C),,4,2,2,
CC(C)C[C@@H]1NC(=O)[C@@H](Cc2ccccc2)NC(=O)[C@H](CCN)NC(=O)[C@@H](NC(=O)[C@H](CCN)NC(=O)[C@@H](NC(=O)CCSSCCC2CCCCC2)[C@@H](C)O)CCNC(=O)[C@H]([C@@H](C)O)NC(=O)[C@H](CCN)NC(=O)[C@H](CCN)NC1=O ([Mpa](S(2-cyclohexylethyl))T[Dab][Dab][Dab][dF]L[Dab][Dab]T; lactam 4-C),,4,2,2,
CC(C)C[C@@H]1NC(=O)[C@@H](Cc2ccccc2)NC(=O)[C@H](CCN)NC(=O)[C@@H](NC(=O)[C@H](CCN)NC(=O)[C@@H](NC(=O)CCSSc2ccc(-c3ccccc3)cc2)[C@@H](C)O)CCNC(=O)[C@H]([C@@H](C)O)NC(=O)[C@H](CCN)NC(=O)[C@H](CCN)NC1=O ([Mpa](X4)T[Dab][Dab][Dab][dF]L[Dab][Dab]T; lactam 4-C),,8,2,4,
CC(C)C[C@@H]1NC(=O)[C@@H](Cc2ccccc2)NC(=O)[C@H](CCN)NC(=O)[C@@H](NC(=O)[C@H](CCN)NC(=O)[C@@H](NC(=O)OCCSSCc2cccc(Cl)c2)[C@@H](C)O)CCNC(=O)[C@H]([C@@H](C)O)NC(=O)[C@H](CCN)NC(=O)[C@H](CCN)NC1=O (X3-T[Dab][Dab][Dab][dF]L[Dab][Dab]T; lactam 3-C),,4,1,1,1.3
CC(C)CCSSCCOC(=O)N[C@H](C(=O)N[C@H](CO)C(=O)N[C@H]1CCNC(=O)[C@H]([C@@H](C)O)NC(=O)[C@H](CCN)NC(=O)[C@H](CCN)NC(=O)[C@H](CC(C)C)NC(=O)[C@@H](Cc2ccccc2)NC(=O)[C@H](CCN)NC1=O)[C@@H](C)O (X2-T[dS][Dab][Dab][dF]L[Dab][Dab]T; lactam 3-C),,4,2,4,
CC(C)CCSSC(C)(C)[C@@H](N)C(=O)N[C@H](C(=O)N[C@@H](CN)C(=O)N[C@H]1CCNC(=O)[C@H]([C@@H](C)O)NC(=O)[C@H](CCN)NC(=O)[C@H](CCN)NC(=O)[C@H](CC(C)C)NC(=O)[C@@H](Cc2ccccc2)NC(=O)[C@H](CCN)NC1=O)[C@@H](C)O (H-[dPen](S(3-Methylbutyl))T[Dap][Dab][Dab][dF]L[Dab][Dab]T; lactam 4-C),1,2,1,2,
